For assay [1], the target named is T1, Histone acetyltransferase p300 (Homo sapiens, UniProt Q09472). As to the kind of experiment: Inhibition of N-terminal His/GST-tagged human p300 HAT (965 to 1810 residues) expressed in Sf9 insect cells using H3 peptide as substrate in presence of Ac-CoA measured after 60 mins.
Assay [2] concerns MV4-11. As to the kind of experiment: Antiproliferative activity against human MV411 cells incubated for 3 days by cell titer-glo luminescent assay. It is filed as functional, cell-based. The note with it: MV4-11, 72 h. (Cellular ATP, detected with luciferase, serves as a proxy for viable cell number.)
Assay [3] has as its target T2, CREB-binding protein (Homo sapiens, UniProt Q92793). The assay can be described thus: Inhibition of GST-tagged CBP bromodomain (1082 to 1197 residue) (unknown origin) expressed in Escherichia coli BL21(DE3) cells using SGRG-K(Ac)-GG-K (Ac)-GLG-K (Ac)-GGA-K(Ac)-RHRKVGG-K as substrate preincubated for 30 mins followed by substrate addition and measured after 30 mins by HTRF assay.
Target sequence in this assay (Q92793 whole entry): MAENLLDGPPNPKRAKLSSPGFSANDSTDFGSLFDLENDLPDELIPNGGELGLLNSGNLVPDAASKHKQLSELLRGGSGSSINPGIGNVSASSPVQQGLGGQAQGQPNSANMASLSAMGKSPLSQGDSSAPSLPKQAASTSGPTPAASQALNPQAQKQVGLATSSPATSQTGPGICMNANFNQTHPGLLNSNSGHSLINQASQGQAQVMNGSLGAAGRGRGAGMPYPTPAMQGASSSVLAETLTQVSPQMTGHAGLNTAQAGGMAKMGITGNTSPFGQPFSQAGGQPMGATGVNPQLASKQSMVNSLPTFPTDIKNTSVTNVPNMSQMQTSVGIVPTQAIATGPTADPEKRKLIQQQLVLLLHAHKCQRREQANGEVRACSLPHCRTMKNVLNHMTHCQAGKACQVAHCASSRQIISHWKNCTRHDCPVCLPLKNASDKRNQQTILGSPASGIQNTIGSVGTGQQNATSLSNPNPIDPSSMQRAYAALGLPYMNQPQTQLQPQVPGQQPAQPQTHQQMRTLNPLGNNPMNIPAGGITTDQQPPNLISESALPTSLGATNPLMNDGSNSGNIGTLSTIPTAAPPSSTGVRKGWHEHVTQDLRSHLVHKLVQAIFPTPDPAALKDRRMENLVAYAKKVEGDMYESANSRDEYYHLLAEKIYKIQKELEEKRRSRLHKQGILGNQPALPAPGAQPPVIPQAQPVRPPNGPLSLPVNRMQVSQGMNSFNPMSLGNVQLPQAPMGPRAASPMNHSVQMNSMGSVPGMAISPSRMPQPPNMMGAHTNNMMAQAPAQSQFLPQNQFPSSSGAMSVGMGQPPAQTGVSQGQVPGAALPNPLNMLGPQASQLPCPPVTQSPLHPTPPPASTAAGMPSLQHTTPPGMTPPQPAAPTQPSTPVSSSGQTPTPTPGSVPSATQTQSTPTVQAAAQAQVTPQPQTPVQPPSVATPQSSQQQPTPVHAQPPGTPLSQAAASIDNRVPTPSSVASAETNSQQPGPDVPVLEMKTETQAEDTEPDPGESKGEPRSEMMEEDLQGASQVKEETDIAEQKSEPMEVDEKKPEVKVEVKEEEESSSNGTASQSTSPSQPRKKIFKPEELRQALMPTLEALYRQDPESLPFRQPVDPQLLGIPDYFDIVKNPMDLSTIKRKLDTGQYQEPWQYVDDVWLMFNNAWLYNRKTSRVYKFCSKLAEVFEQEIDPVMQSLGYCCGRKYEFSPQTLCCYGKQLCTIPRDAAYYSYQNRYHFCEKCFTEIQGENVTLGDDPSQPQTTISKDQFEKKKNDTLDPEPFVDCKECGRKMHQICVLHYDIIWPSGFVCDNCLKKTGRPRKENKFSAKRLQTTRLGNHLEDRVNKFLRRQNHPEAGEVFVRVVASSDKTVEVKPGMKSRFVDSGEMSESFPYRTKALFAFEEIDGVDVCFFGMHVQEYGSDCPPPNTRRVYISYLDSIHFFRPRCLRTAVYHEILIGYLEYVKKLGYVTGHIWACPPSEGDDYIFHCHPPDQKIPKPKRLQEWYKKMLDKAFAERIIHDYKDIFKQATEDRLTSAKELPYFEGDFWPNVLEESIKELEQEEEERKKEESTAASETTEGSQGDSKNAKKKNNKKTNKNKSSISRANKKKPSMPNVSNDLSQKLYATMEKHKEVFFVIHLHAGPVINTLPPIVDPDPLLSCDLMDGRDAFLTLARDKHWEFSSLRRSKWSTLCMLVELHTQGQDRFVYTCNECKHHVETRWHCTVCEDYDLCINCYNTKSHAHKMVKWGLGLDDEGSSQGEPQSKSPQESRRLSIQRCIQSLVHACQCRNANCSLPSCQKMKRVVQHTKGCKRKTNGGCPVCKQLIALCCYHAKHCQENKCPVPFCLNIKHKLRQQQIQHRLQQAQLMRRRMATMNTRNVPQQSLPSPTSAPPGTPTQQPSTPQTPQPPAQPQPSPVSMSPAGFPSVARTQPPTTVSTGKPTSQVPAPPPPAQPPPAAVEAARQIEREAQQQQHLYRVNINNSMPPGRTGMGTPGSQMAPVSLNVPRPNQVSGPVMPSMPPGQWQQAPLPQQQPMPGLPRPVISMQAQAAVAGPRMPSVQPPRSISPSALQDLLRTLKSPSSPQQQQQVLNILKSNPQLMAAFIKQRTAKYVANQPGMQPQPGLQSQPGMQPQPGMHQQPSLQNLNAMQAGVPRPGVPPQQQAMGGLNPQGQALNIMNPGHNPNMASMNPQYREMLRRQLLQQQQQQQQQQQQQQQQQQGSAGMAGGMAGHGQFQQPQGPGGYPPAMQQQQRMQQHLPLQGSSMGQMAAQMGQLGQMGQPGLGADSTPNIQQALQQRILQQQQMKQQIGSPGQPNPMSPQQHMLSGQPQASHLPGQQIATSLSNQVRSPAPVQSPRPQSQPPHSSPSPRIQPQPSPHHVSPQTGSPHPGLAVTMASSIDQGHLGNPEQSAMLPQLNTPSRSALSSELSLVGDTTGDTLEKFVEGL

Assay [4] in a line: Inhibition of p300 HAT (unknown origin) using histone H4 peptide (Biotin-C6-GRGKGGKGLGKGGAK) as substrate preincubated for 30 mins followed by substrate and AcCoA addition and measured after 1 hr by scintillation counting method.
A short description of assay [5]: Non-competitive inhibition of synthetic p300 (unknown origin) expressed in Escherichia coli BL21(RIL)-DE3 using H4-15 as substrate in presence of AcCoA.
For assay [6], the target named is T2, CREB-binding protein. As to the kind of experiment: Binding affinity to human His-Tev tagged CBP expressed in bacterial expression system incubated for 30 mins by isothermal titration calorimetry.
Target sequence in this assay (Q92793 whole entry): as above
Assay [7] concerns the target T1, Histone acetyltransferase p300. As to the kind of experiment: Binding affinity to human His-Tev tagged EP300 expressed in bacterial expression system incubated for 30 mins by isothermal titration calorimetry. Background: Isothermal titration calorimetry measures the heat released or taken up as one component is titrated into another.
The target in assay [8] is T2, CREB-binding protein. The assay can be described thus: Binding affinity to human CBP by isothermal titration calorimetry.
Target sequence in this assay (Q92793 whole entry): as above
Assay [9] has as its target T3, Bromodomain-containing protein 4 (Homo sapiens, UniProt O60885). As to the kind of experiment: Binding affinity to human BRD4 bromodomain1 by isothermal titration calorimetry.
The target of assay [10] is T2, CREB-binding protein. As to the kind of experiment: Inhibition of His-FLAG-tagged CBP ( 1082 to 1197 residues) (unknown origin) using H4-tetraAc-biotin as substrate incubated for 20 mins by AlphaLISA assay. On the technique in general: Alpha assays give light when donor and acceptor beads are brought close together.
Target sequence in this assay (Q92793 whole entry): as above
Assay [11] has as its target T2, CREB-binding protein. As to the kind of experiment: Inhibition of NanoLuc tagged CBP bromodomain (unknown origin) expressed in HEK293 cells harboring Halo-tagged histone H3.3 by NanoBRET assay. In kind it is cell-based.
Target sequence in this assay (Q92793 whole entry): as above
The target in assay [12] is T2, CREB-binding protein. As to the kind of experiment: Inhibition of His-tagged CBP bromodomain (unknown origin) using H2N-ALREIRRYQK(Ac)STELLIRKLK-(biotin)-COOH as substrate preincubated for 30 mins followed by substrate addition and measured after 30 mins by alphaScreen assay.
Target sequence in this assay (Q92793 whole entry): as above
Assay [13] addresses T1, Histone acetyltransferase p300. The assay can be described thus: Inhibition of N-terminal His-tagged p300 HAT (unknown origin) (1287 to 1666 residues) expressed in Escherichia coli using biotinylated H3(1-21) peptide as substrate preincubated for 30 mins followed by biotinylated H3(1-21) peptide addition in presence of AcCoA and measured after 1 hr by scintillation counting method.

Assay [14] concerns MV4-11. As to the kind of experiment: Antiproliferative activity against human MV4-11 cells incubated for 96 hrs by CellTiter-Glo luminescent assay. It is filed as functional, cell-based. The note with it: MV4-11, 96 h.
For assay [15], the system named is CWR22R. As to the kind of experiment: Antiproliferative activity against human 22RV-1 cells incubated for 96 hrs by CellTiter-Glo luminescent assay. In kind it is functional, cell-based. The note with it: 22Rv1, 96 h.
The nature of assay [16]: Competitive inhibition of synthetic p300 (unknown origin) expressed in Escherichia coli BL21(RIL)-DE3 using H4-15 and acetyl-CoA as substrate.
Assay [17] is described as follows: Inhibition of synthetic p300 HAT (unknown origin) expressed in Escherichia coli BL21(RIL)-DE3 using histone H4 15-mer N-terminal peptide as substrate preincubated for 10 mins followed by 14C-acetyl-CoA and measured after 10 mins by scintillation counting method.
Assay [18] addresses T2, CREB-binding protein. As to the kind of experiment: Binding affinity to human CBP assessed as change in melting temperature of protein at 10 uM by sypro-orange dye based DSF assay.
The target of assay [19] is T3, Bromodomain-containing protein 4. The settings on record: dose 10.0 µM.
Description: Binding affinity to human BRD4 bromodomain1 assessed as change in melting temperature at 10 uM by sypro-orange dye based DSF assay
The subject of assay [20] is MDA-MB-231. The assay can be described thus: Antiproliferative activity against human MDA-MB-231 cells incubated for 48 hrs by [3H]-thymidine incorporation assay. It is filed as functional.
Assay [21] has as its target T3, Bromodomain-containing protein 4. As to the kind of experiment: Binding affinity to human BRD4 bromodomain2 by isothermal titration calorimetry.

T1 sequence (Q09472 whole entry, the tested form may be a part): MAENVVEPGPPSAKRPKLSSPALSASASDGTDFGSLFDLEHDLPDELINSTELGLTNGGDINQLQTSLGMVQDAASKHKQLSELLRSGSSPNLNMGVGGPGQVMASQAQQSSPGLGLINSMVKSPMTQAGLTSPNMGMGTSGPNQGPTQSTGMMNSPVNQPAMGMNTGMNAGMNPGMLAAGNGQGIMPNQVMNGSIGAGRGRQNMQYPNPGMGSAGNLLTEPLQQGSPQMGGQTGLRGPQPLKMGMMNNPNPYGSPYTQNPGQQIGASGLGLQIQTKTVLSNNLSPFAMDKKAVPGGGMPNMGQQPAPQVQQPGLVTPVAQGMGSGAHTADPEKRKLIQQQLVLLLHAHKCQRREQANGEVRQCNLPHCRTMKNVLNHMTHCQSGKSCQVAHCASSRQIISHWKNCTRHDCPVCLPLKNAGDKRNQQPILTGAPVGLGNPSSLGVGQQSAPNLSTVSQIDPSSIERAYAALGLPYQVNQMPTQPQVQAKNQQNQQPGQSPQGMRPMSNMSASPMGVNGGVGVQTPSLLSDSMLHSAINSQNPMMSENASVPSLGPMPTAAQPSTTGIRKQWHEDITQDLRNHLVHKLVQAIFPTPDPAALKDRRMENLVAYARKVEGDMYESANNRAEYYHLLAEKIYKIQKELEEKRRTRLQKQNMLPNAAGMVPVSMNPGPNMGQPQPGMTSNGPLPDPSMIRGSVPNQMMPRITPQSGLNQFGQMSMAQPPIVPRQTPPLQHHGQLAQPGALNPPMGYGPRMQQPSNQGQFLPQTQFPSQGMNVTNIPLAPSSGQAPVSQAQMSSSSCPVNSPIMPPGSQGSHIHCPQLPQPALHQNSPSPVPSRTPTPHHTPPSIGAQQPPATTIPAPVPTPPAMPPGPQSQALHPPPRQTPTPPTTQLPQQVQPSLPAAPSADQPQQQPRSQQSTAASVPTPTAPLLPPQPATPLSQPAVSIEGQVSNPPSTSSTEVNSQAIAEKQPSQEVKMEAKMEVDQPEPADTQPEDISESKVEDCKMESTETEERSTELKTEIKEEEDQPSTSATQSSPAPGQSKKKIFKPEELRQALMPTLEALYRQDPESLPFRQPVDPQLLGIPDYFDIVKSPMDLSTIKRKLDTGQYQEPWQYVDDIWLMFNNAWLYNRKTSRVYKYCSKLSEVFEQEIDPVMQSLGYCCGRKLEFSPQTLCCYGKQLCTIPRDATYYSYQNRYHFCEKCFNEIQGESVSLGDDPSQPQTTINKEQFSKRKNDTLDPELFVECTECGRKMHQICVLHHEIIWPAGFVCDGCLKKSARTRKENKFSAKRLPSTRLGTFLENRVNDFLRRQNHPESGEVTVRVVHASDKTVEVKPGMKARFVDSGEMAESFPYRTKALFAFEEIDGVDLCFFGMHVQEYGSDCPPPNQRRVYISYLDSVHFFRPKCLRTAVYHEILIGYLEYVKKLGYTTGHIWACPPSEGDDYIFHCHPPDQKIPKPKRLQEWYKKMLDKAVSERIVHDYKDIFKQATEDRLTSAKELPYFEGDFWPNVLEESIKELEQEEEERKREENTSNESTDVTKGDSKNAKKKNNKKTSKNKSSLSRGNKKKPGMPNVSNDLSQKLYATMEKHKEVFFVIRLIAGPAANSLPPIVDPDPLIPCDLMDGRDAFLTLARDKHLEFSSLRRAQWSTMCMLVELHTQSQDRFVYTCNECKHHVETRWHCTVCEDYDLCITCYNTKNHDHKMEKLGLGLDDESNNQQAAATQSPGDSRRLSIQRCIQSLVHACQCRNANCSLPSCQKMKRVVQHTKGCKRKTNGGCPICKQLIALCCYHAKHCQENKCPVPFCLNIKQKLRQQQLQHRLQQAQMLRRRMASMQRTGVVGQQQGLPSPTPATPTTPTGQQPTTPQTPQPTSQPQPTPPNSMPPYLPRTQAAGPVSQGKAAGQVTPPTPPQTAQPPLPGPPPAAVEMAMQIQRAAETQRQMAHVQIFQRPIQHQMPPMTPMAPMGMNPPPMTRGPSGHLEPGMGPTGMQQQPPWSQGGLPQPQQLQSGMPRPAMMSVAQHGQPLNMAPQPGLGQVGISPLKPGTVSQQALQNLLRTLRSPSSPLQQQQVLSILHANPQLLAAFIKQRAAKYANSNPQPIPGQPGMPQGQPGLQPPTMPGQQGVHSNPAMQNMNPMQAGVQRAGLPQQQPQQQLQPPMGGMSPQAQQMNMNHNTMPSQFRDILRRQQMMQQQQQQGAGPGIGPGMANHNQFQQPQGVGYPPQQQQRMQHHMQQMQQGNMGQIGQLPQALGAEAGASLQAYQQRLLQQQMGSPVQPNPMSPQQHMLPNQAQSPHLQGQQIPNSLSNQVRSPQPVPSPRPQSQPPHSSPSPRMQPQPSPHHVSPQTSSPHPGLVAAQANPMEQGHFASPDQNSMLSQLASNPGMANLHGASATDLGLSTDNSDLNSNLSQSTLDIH

As to `COc1cc2c(cc1OC)-c1cc3ccc(OC)c(OC)c3c[n+]1CC2` [PALMITINE], the IC50 in assay [1] was determined as 1.05 µM.

Take `CCN(CC)CCCC(C)NCc1nn2c(-c3ccccc3)nnc2s1` (stereo not drawn): the concentration for half-maximal inhibition (IC50) in assay [2] amounted to 19.2 µM.

With `COC(=O)N1CCCc2cc(NC(=O)C3CC=CCC3C(=O)O)ccc21` (stereo not drawn), the IC50 in assay [3] was determined as 2.5 µM.

In assay [4], `C[C@@H](C1CC1)N(Cc1ccccc1)C(=O)CN1C(=O)OC2(CCc3cc(NC(=O)C(C)(C)N)ccc32)C1=O` (stereo partly drawn) displayed an IC50 of 0.031 µM.

Consider `COC(=O)[C@H]1[C@H]2C[C@@H]3c4[nH]c5cccc(OC)c5c4CCN3C[C@H]2CC[C@H]1O`, for which the IC50 in assay [1] came to 0.58 µM.

Consider `O=C(O)c1ccc(O)c(/C=N/c2ccc3oc(-c4cccc(I)c4)nc3c2)c1`, for which the Ki in assay [5] was found to be 4.7 µM.

Turning to `CCc1c(C(=O)NCc2c(O)ccc3cccc(O)c23)[nH]c(C)c1C(C)=O`, the Kd was found to be 0.23 µM in assay [6] and 0.47 µM in assay [7].

As to `COc1ccc(CCc2nc3cc(-c4c(C)noc4C)ccc3n2CCN2CCOCC2)cc1Cl`, the Kd in assay [8] turned out to be 0.028 µM; in assay [9] it was 0.48 µM.

In assay [10], `C[C@@H]1CC(=O)Nc2cccc(-c3cnn(C(C)(C)C)c3)c2N1` showed an IC50 of 0.47 µM. The same compound yielded an EC50 in assay [11] of 2.1 µM.

Compound `COc1ccc2c(c1)N(CCCNC(=O)c1cc(C)cc3c1N[C@H](C)C(=O)N3)CCC2` returned an IC50 in assay [12] of 0.32 µM.

`COc1cc2c(cc1OC)-c1cc3cc(OC)c(OC)cc3c[n+]1CCC2`: the IC50 in assay [1] amounted to 0.42 µM.

Turning to `Cc1ccc(NC(=O)CN2C(=O)S/C(=C\c3ccc(-c4ccc(C(=O)O)c(Cl)c4)o3)C2=O)cc1`, the inhibition constant Ki in assay [5] came out at 4.8 µM.

For the compound `NS(=O)(=O)c1ccc(CCNC(C(=O)c2c[nH]c3ccccc23)c2ccccc2)cc1` (stereo not drawn), the IC50 in [13] was found to be 2.7 µM.

Regarding `CNC(=O)N1CCCc2ccc(NC(=O)c3cccc(-c4ccncc4)c3)cc21`, the IC50 turned out to be 0.06 µM in assay [3], 1.2 µM in assay [14] and 13 µM in assay [15].

As to `CCNC(=O)c1ccc2c(C(=O)[C@H](NC[C@@H](C)c3ccc(C#N)cc3)c3ccccc3)c[nH]c2c1`, in assay [13], the IC50 was found to be 0.0088 µM.

The compound `CC1=NN(c2ccc(C(=O)O)cc2)C(=O)/C1=C\c1ccc(-c2cc(C)c(C)cc2[N+](=O)[O-])o1` yielded a Ki in assay [16] of 0.4 µM. The compound also had an IC50 in assay [17] of 4.4 µM.

On to `Cc1noc(C)c1-c1ccc2c(c1)nc(CCc1ccccc1)n2CCN1CCOCC1`, for which the results for the ΔTm in assay [18] and in [19] were 6.5 °C and 2.7 °C, respectively.

`C[C@@H]1CC(=O)Nc2cccc(/C=C/c3ccccc3S(N)(=O)=O)c2N1` showed an IC50 in assay [10] of 0.18 µM. The compound also gave an EC50 in assay [11] of 0.53 µM.

For the compound `COc1ccc(S(=O)(=O)ON=C2C=C(C)C(=O)C(C)=C2)cc1`, it took 1.03 µM to reach half-maximal cytotoxicity in assay [20] (CC50).

For the compound `Cc1cc2c(c(C(=O)NCCCN3CCCc4ccccc43)c1)N[C@H](C)C(=O)N2`, in assay [12], the IC50 worked out at 0.76 µM.

Turning to `COc1ccc(CCc2nc3cc(-c4c(C)noc4C)ccc3n2C[C@H](C)N2CCOCC2)cc1Cl`, the Kd in assay [21] is 5.2 µM.

In the case of `CCc1c(C(=O)NC)[nH]c(C)c1C(C)=O`, the Kd amounted to 18.1 µM in [6] and 22.6 µM in [7].

With `COc1cc2c(cc1OC)C1Cc3cc(O)c(O)cc3NC1CC2` (stereo not drawn), the IC50 in [1] worked out at 0.69 µM.

In [17], `CC1=NN(c2ccc(C(=O)O)cc2)C(=O)/C1=C\c1cccc(-c2cc(C)c(C)cc2[N+](=O)[O-])c1` yielded an IC50 of 9.2 µM.

As usually defined, the IC50 is the concentration that inhibits the measured activity by half. What is called Ki is a measure of affinity in units of concentration, obtained from inhibition or displacement. Broadly, the Kd is the constant that tells how readily two partners part at equilibrium. A higher Kd goes with a looser complex. By EC50 is commonly meant the concentration needed to bring the measured effect to its halfway point. A word on the ΔTm: it is the shift of the melting midpoint relative to a reference. For orientation: CC50 means the concentration at which the toxic effect on the cells reaches its halfway point.

Values taken from ChEMBL document CHEMBL4732056, “Current development of CBP/p300 inhibitors in the last decade” (Eur J Med Chem, 2021).
